Data published in patent US20220324835A1 (Nurix Therapeutics, Inc., priority 2018, published 2022).

Tests used:
T-cells = assay: In vivo activity: CD25 expression on CD4+ or CD8+ T-cells of mice stimulated with anti-CD3 antibody; conditions: 2 μg anti-CD3 antibody, 24 hours
Summary of the method: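 C57BL/6 or BALB/c mice dosed with inhibitor (IV, IP, SC or PO, e.g. BID or TID), then stimulated with 2 μg anti-CD3 antibody. Plasma IL-2, IFNγ, TNFα at 8 h and CD25 on CD4+/CD8+ T-cells by flow cytometry at 24 h; fold change over vehicle plus anti-CD3, binned A–E.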

anergic human T-cells = assay: Anergic T-cell activation assessed by IFNγ secretion (ionomycin-induced anergy); assay type: cell-based; conditions: anergic T-cells re-challenged with anti-CD3 and anti-CD28 for 24 hours, read-out: IFNγ Fold change from baseline
Excerpt: Peripheral blood mononuclear cells (PBMC) were obtained either: 1) by using Ficoll-Paque™ (GE Healthcare) for separation of peripheral blood hematopoietic cells from buffy coats of healthy human donors; or 2) directly from LeukoPak donations. Total human primary T-cells were isolated from the PBMCs utilizing negative selection with commercial kits following the manufacturer's protocol (Miltenyi Catalog #130-096-535 (i.e., cocktail of antibodies against surface markers CD14, CD15, CD16, CD19, CD34, CD36, CD56, CD123 and CD235a were incubated with the PBMCs before passing the samples by magnetic beads for removal of cells expressing those surface markers) or StemCells Catalog #17951) to yield >95% CD3+ cells assessed by flow cytometry. The cells were activated with immobilized anti-CD3 antibody (OKT3) and soluble anti-CD28 antibody (28.2) for two days at which time they are washed and allowed to rest for three days in the absence of stimulation. They were then treated with ionomycin (Sigma) for 18-24 hours to induce anergy. Following two washes to remove the ionomycin from the samples, Cbl-b inhibitor compounds were added to the cells at the indicated concentrations (e.g. 10, 1.11 and 0.37 μM) and incubated for 1 hour. The cells were then re-challenged with anti-CD3 antibody and anti-CD28 antibody for 24 hours at which point cell free supernatants were collected and assessed for cytokines (e.g., IFNγ) by ELISA (R&D Systems or Peprotech) or Luminex multiplex kits (Procarta Life Technologies) following manufacturer's protocols.
Cbl-b inhibitors were tested to determine their ability to induce or enhance secretion of cytokines from anergic T-cells (e.g. IFNγ), which is indicative of decreased T-cell tolerance.
Readouts were reported as fold change over baseline. Baseline for this study was the measurement obtained from anergic human T-cells stimulated with immobilized anti-CD3 and soluble anti-CD28, wherein the T-cells were not incubated with a Cbl-b inhibitor (Table 7). For IFNγ changes greater than 2.5-fold over baseline were considered a positive response (Table 7). Compounds were ranked into bins according to their readout as follows for IFNγ: A indicates ≤2.50, B indicates 2.51-4.00 and C indicates >4.01.

T-cell = assay: IL-2 secretion from T-cells stimulated with anti-CD3 antibody alone (Biological Example 2); assay type: cell-based; conditions: primary human total T-cells, read-out: IL-2 secretion, Anti-CD3 stimulation, fold change over baseline; for fold induction at 1 µM: 1 μM compound; for fold induction at 8 µM: 8 μM compound

In the case of `Cn1cnnc1CC1(c2cccc(N3Cc4c(cc(CN5CCC6(CC6)C5)cc4C(F)(F)F)C3=O)c2)COC1` [Compound 520, 6-((5-azaspiro[2.4]heptan-5-yl)methyl)-2-(3-(3-((4-methyl-4H-1,2,4-triazol-3-yl)methyl)oxetan-3-yl)phenyl)-4-(trifluoromethyl)isoindolin-1-one], the “CD4+ T-cell % CD25+” value (T-cells; 45 mpk PO BID) is reported as “D (D indicates 1.00-1.50)”, the “CD8+ T-cell % CD25+” value (T-cells; 45 mpk PO BID) is reported as “D (D indicates 1.00-1.50)” and the “CD4+ T-cell % CD25+” value (T-cells; 90 mpk PO BID) is reported as “D (D indicates 1.00-1.50)”. For the same compound, the “CD8+ T-cell % CD25+” value (T-cells; 90 mpk PO BID) was “D (D indicates 1.00-1.50)”, the “CD4+ T-cell % CD25+” value (T-cells; 135 mpk PO BID) was “C (C indicates 1.51-2.00)” and the “CD8+ T-cell % CD25+” value (T-cells; 135 mpk PO BID) was “D (D indicates 1.00-1.50)”. The “CD4+ T-cell % CD25+” value (T-cells; 180 mpk PO BID) was “B (B indicates 2.01-2.50)”, the “CD8+ T-cell % CD25+” value (T-cells; 180 mpk PO BID) was “D (D indicates 1.00-1.50)” and the fold induction at 0.37 µM (anergic human T-cells) was no more than 2.5. For the same compound, the fold induction at 1.11 µM (anergic human T-cells) was 2.51 to 4, the fold induction at 10 µM (anergic human T-cells) was greater than 4.01 and the fold induction at 1 µM (T-cell) was greater than 0.201.

With `Cn1cnnc1CC1(c2cccc(NC(=O)c3cc(CN4CCC5(CC5)C4)cc(C4CC4)n3)c2)COC1` [Compound 519, 4-((5-azaspiro[2.4]heptan-5-yl)methyl)-6-cyclopropyl-N-(3-(3-((4-methyl-4H-1,2,4-triazol-3-yl)methyl)oxetan-3-yl)phenyl)picolinamide] the “CD4+ T-cell % CD25+” value (T-cells; 45 mpk PO BID) was “C (C indicates 1.51-2.00)”, the “CD8+ T-cell % CD25+” value (T-cells; 45 mpk PO BID) was “D (D indicates 1.00-1.50)” and the “CD4+ T-cell % CD25+” value (T-cells; 90 mpk PO BID) was “A (A indicates >2.50)”. For the same compound, the “CD8+ T-cell % CD25+” value (T-cells; 90 mpk PO BID) was “D (D indicates 1.00-1.50)”, the “CD4+ T-cell % CD25+” value (T-cells; 180 mpk PO BID) was “A (A indicates >2.50)” and the “CD8+ T-cell % CD25+” value (T-cells; 180 mpk PO BID) was “C (C indicates 1.51-2.00)”. It also gave a fold induction at 0.37 µM (anergic human T-cells) greater than 4.01, a fold induction at 1.11 µM (anergic human T-cells) greater than 4.01 and a fold induction at 10 µM (anergic human T-cells) greater than 4.01. The fold induction at 1 µM (T-cell) was greater than 0.201.

`C[C@H](c1cc2c(c(C(F)(F)F)c1)CN(c1cccc(C3(Cc4nncn4C)COC3)c1)C2=O)N1CC[C@H](F)C1` [Compound 413, 6-((R)-1-((S)-3-fluoropyrrolidin-1-yl)ethyl)-2-(3-(3-((4-methyl-4H-1,2,4-triazol-3-yl)methyl)oxetan-3-yl)phenyl)-4-(trifluoromethyl)isoindolin-1-one] was tested, and the “CD4+ T-cell % CD25+” value (T-cells; 90 mpk PO BID) was “D (D indicates 1.00-1.50)”, the “CD8+ T-cell % CD25+” value (T-cells; 90 mpk PO BID) was “D (D indicates 1.00-1.50)” and the “CD4+ T-cell % CD25+” value (T-cells; 135 mpk PO BID) was “D (D indicates 1.00-1.50)”. The “CD8+ T-cell % CD25+” value (T-cells; 135 mpk PO BID) was “D (D indicates 1.00-1.50)”, the “CD4+ T-cell % CD25+” value (T-cells; 180 mpk PO BID) was “D (D indicates 1.00-1.50)” and the “CD8+ T-cell % CD25+” value (T-cells; 180 mpk PO BID) was “D (D indicates 1.00-1.50)”. It also gave a fold induction at 0.37 µM (anergic human T-cells) of 2.51 to 4, a fold induction at 1.11 µM (anergic human T-cells) greater than 4.01 and a fold induction at 10 µM (anergic human T-cells) greater than 4.01. It also gave a fold induction at 1 µM (T-cell) greater than 0.201 and a fold induction at 8 µM (T-cell) greater than 0.201.

With `C[C@@H](c1cc2c(c(C(F)(F)F)c1)CN(c1cccc(C3(Cc4nncn4C)COC3)c1)C2=O)N1CC[C@H](F)C1` [Compound 412, 6-((S)-1-((S)-3-fluoropyrrolidin-1-yl)ethyl)-2-(3-(3-((4-methyl-4H-1,2,4-triazol-3-yl)methyl)oxetan-3-yl)phenyl)-4-(trifluoromethyl)isoindolin-1-one] the “CD4+ T-cell % CD25+” value (T-cells; 90 mpk PO BID) was “D (D indicates 1.00-1.50)”, the “CD8+ T-cell % CD25+” value (T-cells; 90 mpk PO BID) was “D (D indicates 1.00-1.50)” and the “CD4+ T-cell % CD25+” value (T-cells; 135 mpk PO BID) was “C (C indicates 1.51-2.00)”. The “CD8+ T-cell % CD25+” value (T-cells; 135 mpk PO BID) was “D (D indicates 1.00-1.50)”, the “CD4+ T-cell % CD25+” value (T-cells; 180 mpk PO BID) was “B (B indicates 2.01-2.50)” and the “CD8+ T-cell % CD25+” value (T-cells; 180 mpk PO BID) was “D (D indicates 1.00-1.50)”. It also gave a fold induction at 0.37 µM (anergic human T-cells) of no more than 2.5, a fold induction at 1.11 µM (anergic human T-cells) greater than 4.01 and a fold induction at 10 µM (anergic human T-cells) greater than 4.01. The fold induction at 1 µM (T-cell) was greater than 0.201 and the fold induction at 8 µM (T-cell) was greater than 0.201.
